Where two headings read alike, the source gives them in different places.
Tested on: FRDA fibroblasts
Experiment: Rescue of FRDA fibroblasts stressed by L-buthionine-(S,R)-sulfoximine (BSO), viability by Calcein AM fluorescence
Assay type: cell-based, human
Settings: for EC50: BSO-stressed (1 mM) FRDA fibroblasts GM04078
Protocol: An initial screen was performed to identify compounds effective for the amelioration of redox disorders. Test samples, 4 reference compounds (idebenone, decylubiquinone, Trolox and α-tocopherol acetate), and solvent controls were tested for their ability to rescue FRDA fibroblasts stressed by addition of L-buthionine-(S,R)-sulfoximine (BSO), as described in Jauslin et al., Hum. Mol. Genet. 11(24):3055 (2002), Jauslin et al., FASEB J. 17:1972-4 (2003), and International Patent Application WO 2004/003565. […] This specific BSO-mediated cell death can be prevented by administration of antioxidants or molecules involved in the antioxidant pathway, such as α-tocopherol, short chain quinones, selenium, or small molecule glutathione peroxidase mimetics. However, antioxidants differ in their potency, i.e. the concentration at which they are able to rescue BSO-stressed FRDA fibroblasts. With this assay EC50 concentrations of the test compounds were determined and compared to known reference antioxidants.
MEM (a medium enriched in amino acids and vitamins, catalog no. 1-31F24-I) and Medium 199 (M199, catalog no. 1-21F224) with Earle's Balanced Salts, without phenol red, were purchased from Bioconcept. Fetal Calf Serum was obtained from PAA Laboratories. Basic fibroblast growth factor and epidermal growth factor were purchased from PeproTech. Penicillin-streptomycin-glutamine mix, L-buthionine (S,R)-sulfoximine, (+)-α-tocopherol acetate, decylubiquinone, and insulin from bovine pancreas were purchased from Sigma. Trolox (6-hydroxy-2,5,7,8-tetramethylchromane-2-carboxylic acid) was obtained from Fluka. Idebenone was obtained from Chemo Iberica. Calcein AM was purchased from Molecular Probes. Cell culture medium was made by combining 125 ml M199 EBS, 50 ml Fetal Calf Serum, 100 U/ml penicillin, 100 μg/ml streptomycin, 2 mM glutamine, 10 μg/ml insulin, 10 ng/ml EGF, and 10 ng/ml bFGF; MEM EBS was added to make the volume up to 500 ml. A 10 mM BSO solution was prepared by dissolving 444 mg BSO in 200 ml of medium with subsequent filter-sterilization. During the course of the experiments, this solution was stored at +4° C. The cells were obtained from the Coriell Cell Repositories (Camden, N.J.; repository number GM04078) and grown in 10 cm tissue culture plates. Every third day, they were split at a 1:3 ratio.
The test samples were supplied in 1.5 ml glass vials. The compounds were diluted with DMSO, ethanol or PBS to result in a 5 mM stock solution. Once dissolved, they were stored at −20° C. Reference antioxidants (idebenone, decylubiquinone, α-tocopherol acetate and trolox) were dissolved in DMSO.
Test samples were screened according to the following protocol: A culture with FRDA fibroblasts was started from a 1 ml vial with approximately 500,000 cells stored in liquid nitrogen. Cells were propagated in 10 cm cell culture dishes by splitting every third day in a ratio of 1:3 until nine plates were available. Once confluent, fibroblasts were harvested. For 54 micro titer plates (96 well-MTP) a total of 14.3 million cells (passage eight) were re-suspended in 480 ml medium, corresponding to 100 μl medium with 3,000 cells/well. The remaining cells were distributed in 10 cm cell culture plates (500,000 cells/plate) for propagation. The plates were incubated overnight at 37° C. in a atmosphere with 95% humidity and 5% CO2 to allow attachment of the cells to the culture plate.
MTP medium (243 μl) was added to a well of the microtiter plate. The test compounds were unfrozen, and 7.5 μl of a 5 mM stock solution was dissolved in the well containing 243 μl medium, resulting in a 150 μM master solution. Serial dilutions from the master solution were made. The period between the single dilution steps was kept as short as possible (generally less than 1 second).
Plates were kept overnight in the cell culture incubator. The next day, 10 μl of a 10 mM BSO solution were added to the wells, resulting in a 1 mM final BSO concentration. […]

Molecule `CC(=O)Oc1c(C)c(C)c2c(c1C)CC[C@@](C)(CCC[C@H](C)CCC[C@H](C)CCCC(C)C)O2` [α-tocopherol acetate, (+)-α-tocopherol acetate, reference compound] has an EC50 (average of three experiments, read-out: EC50 Average) of 300 nM, an EC50 (first of three experiments, read-out: EC50 Value 1) of 400 nM and an EC50 (second of three experiments, read-out: EC50 Value 2) of 150 nM. The EC50 (third of three experiments, read-out: EC50 Value 3) was 350 nM.

In the case of `CC1=C(C)C(=O)C(CC[C@](C)(O)CCC[C@H](C)CCC[C@H](C)CCCC(C)C)=C(C)C1=O` [α-tocopherol quinone, 2-[(3R,7R,11R)-3-hydroxy-3,7,11,15-tetramethylhexadecyl]-3,5,6-trimethyl-2,5-cyclohexadiene-1,4-dione], the EC50 (Homo sapiens, average of three experiments, read-out: EC50 Average) is reported as 0.0014 nM, the EC50 (Homo sapiens, first of three experiments, read-out: EC50 Value 1) is reported as 0.001 nM and the EC50 (Homo sapiens, second of three experiments, read-out: EC50 Value 2) is reported as 0.003 nM. For the same molecule, the “EC50 fold lower than alpha-D-tocopherol” value (human cell culture model of FRDA, relative to alpha-D-tocopherol) was 10^4 fold and the “EC50 fold lower than idebenone” value (human cell culture models of FRDA, relative to idebenone) was 10^5 fold.

Reference: patent publication US11021424B2, “Redox-active therapeutics for treatment of mitochondrial diseases and other conditions and modulation of energy biomarkers” (PTC THERAPEUTICS, INC., priority 2005, dated 2021)
